Source: ChEMBL document CHEMBL2074394, “Multispecific organic anion transporter is responsible for the biliary excretion of the camptothecin derivative irinotecan and its metabolites in rats” (J Pharmacol Exp Ther, 1997)

How the values were obtained:
[1] = target: T1, ATP-binding cassette sub-family C member 2 (Rattus norvegicus, UniProt Q63120); experiment: TP_TRANSPORTER: uptake in bile canalicular membrane vesicles (EHBR); type: functional, cell membranes, Bile canalicular membrane vesicle
[2] = target: T1, ATP-binding cassette sub-family C member 2; experiment: TP_TRANSPORTER: inhibition of DNP-SG uptake in bile canalicular membrane vesicles from SD rat; type: functional, cell membranes, Sprague-Dawley, Bile canalicular membrane vesicle
[3] = target: T1, ATP-binding cassette sub-family C member 2; experiment: TP_TRANSPORTER: uptake in bile canalicular membrane vesicles (SD); type: functional, cell membranes, Sprague-Dawley, Bile canalicular membrane vesicle
[4] = target: T1, ATP-binding cassette sub-family C member 2; experiment: TP_TRANSPORTER: uptake in canalicular membrane vesicles of liver (SD); type: functional, cell membranes, Sprague-Dawley, Canalicular membrane vesicle
[5] = target: T1, ATP-binding cassette sub-family C member 2; experiment: TP_TRANSPORTER: uptake in canalicular membrane vesicles of liver (EHBR); type: functional, cell membranes, Canalicular membrane vesicle

T1 sequence (Q63120 whole entry): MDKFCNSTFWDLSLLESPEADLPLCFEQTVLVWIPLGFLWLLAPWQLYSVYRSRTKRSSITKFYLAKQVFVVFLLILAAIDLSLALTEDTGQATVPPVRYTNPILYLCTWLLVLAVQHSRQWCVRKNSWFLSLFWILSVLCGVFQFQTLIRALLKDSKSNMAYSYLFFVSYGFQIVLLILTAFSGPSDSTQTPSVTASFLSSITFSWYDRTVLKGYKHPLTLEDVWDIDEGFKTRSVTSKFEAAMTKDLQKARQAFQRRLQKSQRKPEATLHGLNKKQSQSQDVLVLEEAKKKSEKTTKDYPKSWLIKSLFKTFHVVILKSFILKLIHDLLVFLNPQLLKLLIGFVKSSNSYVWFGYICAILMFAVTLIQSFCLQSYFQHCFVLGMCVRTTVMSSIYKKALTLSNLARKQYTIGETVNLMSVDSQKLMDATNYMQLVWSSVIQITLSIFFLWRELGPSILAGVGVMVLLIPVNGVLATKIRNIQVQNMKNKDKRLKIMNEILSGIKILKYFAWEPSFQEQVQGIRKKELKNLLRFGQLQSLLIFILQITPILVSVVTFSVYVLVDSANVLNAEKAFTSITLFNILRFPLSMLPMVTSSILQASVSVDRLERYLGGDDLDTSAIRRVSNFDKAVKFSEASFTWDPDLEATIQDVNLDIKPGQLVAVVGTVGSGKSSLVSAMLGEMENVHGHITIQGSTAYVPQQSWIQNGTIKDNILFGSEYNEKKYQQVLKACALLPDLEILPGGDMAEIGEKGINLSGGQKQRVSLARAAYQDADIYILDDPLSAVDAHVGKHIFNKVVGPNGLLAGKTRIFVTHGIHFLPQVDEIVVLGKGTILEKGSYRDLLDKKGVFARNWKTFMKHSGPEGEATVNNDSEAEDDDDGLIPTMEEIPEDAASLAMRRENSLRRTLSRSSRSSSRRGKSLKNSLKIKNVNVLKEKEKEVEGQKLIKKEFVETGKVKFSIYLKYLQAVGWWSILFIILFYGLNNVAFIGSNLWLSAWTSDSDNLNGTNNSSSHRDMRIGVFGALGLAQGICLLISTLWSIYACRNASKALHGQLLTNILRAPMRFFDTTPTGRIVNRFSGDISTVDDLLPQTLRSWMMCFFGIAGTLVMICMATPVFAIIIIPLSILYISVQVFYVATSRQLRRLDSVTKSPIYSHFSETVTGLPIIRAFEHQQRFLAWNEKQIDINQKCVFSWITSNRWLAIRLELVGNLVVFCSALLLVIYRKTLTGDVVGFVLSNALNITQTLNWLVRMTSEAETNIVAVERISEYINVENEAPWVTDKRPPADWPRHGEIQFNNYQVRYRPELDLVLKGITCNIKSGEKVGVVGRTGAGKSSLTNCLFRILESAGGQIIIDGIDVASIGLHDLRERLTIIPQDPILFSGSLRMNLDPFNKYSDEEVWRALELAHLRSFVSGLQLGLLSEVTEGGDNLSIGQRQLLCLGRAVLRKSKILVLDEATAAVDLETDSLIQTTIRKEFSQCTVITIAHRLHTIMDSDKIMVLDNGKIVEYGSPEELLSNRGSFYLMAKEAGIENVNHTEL

Structure (SMILES)	Activity [1]	Ki [2] [µM]	Activity [3]	Activity [4]	Activity [5]
CCc1c2c(nc3ccc(O)cc13)-c1cc([C@@](O)(CC)C(=O)O)c(CO)c(=O)n1C2	substrate [+]	18.3	substrate [+]	–	–
CCc1c2c(nc3ccc(OC(=O)N4CCC(N5CCCCC5)CC4)cc13)-c1cc([C@@](O)(CC)C(=O)O)c(CO)c(=O)n1C2	–	96.6	–	substrate [+]	substrate [+]
CCc1c2c(nc3ccc(O[C@@H]4O[C@H](C(=O)O)[C@@H](O)[C@H](O)[C@H]4O)cc13)-c1cc([C@@](O)(CC)C(=O)O)c(CO)c(=O)n1C2	substrate [+]	1.03	substrate [+]	–	–
CCc1c2c(nc3ccc(OC[C@@H]4O[C@H](C(=O)O)[C@@H](O)[C@H](O)[C@H]4O)cc13)-c1cc3c(c(=O)n1C2)COC(=O)[C@]3(O)CC	substrate [+]	1.62	substrate [+]	–	–
